# From patent publication US12144795B2, “Cannabidiol compositions having modified cannabinoid profiles” (priority 2018, dated 2024)
# Read-outs that look alike come from different tables or passages of the source.
# Assays:
# [1] = Cannabidiol solubility in neat solvents and mixtures, isooctane solubility curve; assay type: physicochemical; conditions: for solubility: read-out: Solubility at RT
# From the text: Isooctane was selected as the final crystallization solvent due the low solubility and similar properties to heptane, i.e., low viscosity and boiling point relative to other higher hydrocarbons (Table 33). Based on the solubility and desire to maximize yield, an isooctane volume of 4.0 L/kg was selected as an appropriate crystallization concentration. Prior to crystallization, it was desired to fully dissolve the CBD in isooctane and filter the process stream. […] The isolation temperature of −20° C. was chosen to maximize the yield of the CBD from the final crystallization.
# [2] = assay type: physicochemical
# [3] = 1 month Accelerated 40° C./75% RH
# [4] = 1.5 months Accelerated 40° C./75% RH
# [5] = 2 months Accelerated 40° C./75% RH
# [6] = 3 months Accelerated 40° C./75% RH
# [7] = 5 months Accelerated 40° C./75% RH
# [8] = 6 months Accelerated 40° C./75% RH
smiles,measurement,setting,value
"C=C(C)[C@@H]1CCC(C)=C[C@H]1c1c(O)cc(CCCCC)cc1O [CBD, (1′R,2′R)-5′-methyl-4-pentyl-2′-(prop-1-en-2-yl)-1′,2′,3′,4′-tetrahydro-[1,1′-biphenyl]-2,6-diol]",solubility,"[1]; 1,2-dimethoxyethane, organic solvent or mixture",> 100 mg/mL
same,solubility,"[1]; 1,4-dioxane, organic solvent or mixture",> 100 mg/mL
same,solubility,"[1]; 1-propanol, organic solvent or mixture",> 100 mg/mL
same,solubility,"[1]; 2-butanone, organic solvent or mixture",> 100 mg/mL
same,solubility,"[1]; 10/90 water/ethanol, organic solvent or mixture",> 100 mg/mL
same,solubility,"[1]; 30/70 water/IPA, organic solvent or mixture",> 20 mg/mL
same,solubility,"[1]; 30/70 water/ethanol, organic solvent or mixture",20 to 70 mg/mL
same,Solubility at RT,[1]; 40/60 Water Methanol,oil
same,Solubility at RT,[1]; 45/65 Water Methanol,3.4 mg/mL
same,Solubility at RT,[1]; 50/50 Water/Methanol,0.3 mg/mL
same,solubility,"[1]; 50/50 water/IPA, aqueous with cosolvent or surfactant or cyclodextrin",10 to 20 mg/mL
same,solubility,"[1]; 50/50 water/ethanol, aqueous with cosolvent or surfactant or cyclodextrin",< 5 mg/mL
same,solubility,"[1]; ACN, organic solvent or mixture",> 100 mg/mL
same,solubility,"[1]; CIP 100, aqueous with cosolvent or surfactant or cyclodextrin",< 1 mg/mL
same,solubility,"[1]; CIP 200, aqueous with cosolvent or surfactant or cyclodextrin",< 1 mg/mL
same,solubility,"[1]; DCM, organic solvent or mixture",> 100 mg/mL
same,solubility,"[1]; EtOAc, organic solvent or mixture",> 100 mg/mL
same,solubility,"[1]; EtOH, organic solvent or mixture",> 100 mg/mL
same,solubility,"[1]; IPA, organic solvent or mixture",> 100 mg/mL
same,solubility,"[1]; IPOAc, organic solvent or mixture",> 100 mg/mL
same,solubility,"[1]; MTBE, organic solvent or mixture",> 100 mg/mL
same,solubility,"[1]; MeOH, organic solvent or mixture",> 100 mg/mL
same,solubility,"[1]; MeTHF saturated with water, organic solvent or mixture",> 100 mg/mL
same,solubility,"[1]; MeTHF, organic solvent or mixture",> 100 mg/mL
same,solubility,"[1]; NMPO, organic solvent or mixture",> 100 mg/mL
same,solubility,"[1]; THF, organic solvent or mixture",> 100 mg/mL
same,solubility,"[1]; acetone, organic solvent or mixture",> 100 mg/mL
same,solubility,"[1]; anisole, organic solvent or mixture",> 100 mg/mL
same,solubility,"[1]; chloroform, organic solvent or mixture",> 100 mg/mL
same,solubility,"[1]; cumene, organic solvent or mixture",> 100 mg/mL
same,solubility,"[1]; cyclohexane, organic solvent or mixture",> 100 mg/mL
same,solubility,"[1]; diethyl ether, organic solvent or mixture",> 100 mg/mL
same,solubility,"[1]; ethyl formate, organic solvent or mixture",> 100 mg/mL
same,solubility,"[1]; heptane, organic solvent or mixture",64.6 mg/mL
same,solubility,"[1]; isobutanol, organic solvent or mixture",> 100 mg/mL
same,solubility,"[1]; isooctane, organic solvent or mixture",43.9 mg/mL
same,solubility,"[1]; methylcyclohexane, organic solvent or mixture",> 100 mg/mL
same,solubility,"[1]; n-decane, organic solvent or mixture",36.8 mg/mL
same,solubility,"[1]; n-hexane, organic solvent or mixture",> 100 mg/mL
same,solubility,"[1]; p-xylene, organic solvent or mixture",> 100 mg/mL
same,solubility,"[1]; silicone oil, oil or lipid, Silcone oil",9.7 mg/mL
same,solubility,"[1]; toluene, organic solvent or mixture",> 100 mg/mL
same,solubility,[1]; water,< 0.13 mg/mL
same,Chromatographic Purity: 4-Monobromo-cannabidiol,[2]; 0 month,<0.03%
same,Chromatographic Purity: Individual unspecified impurity,[2]; 0 month,<0.03%
same,Chromatographic Purity: Olivetol,[2]; 0 month,<0.03%
same,Chromatographic Purity: Sum of impurities,[2]; 0 month,<0.05%
same,Chromatographic Purity: 4-Monobromo-cannabidiol,[2]; 1 month 5° C.,<0.03%
same,Chromatographic Purity: Individual unspecified impurity,[2]; 1 month 5° C.,<0.03%
same,Chromatographic Purity: Olivetol,[2]; 1 month 5° C.,<0.03%
same,Chromatographic Purity: Sum of impurities,[2]; 1 month 5° C.,<0.05%
same,Chromatographic Purity: 4-Monobromo-cannabidiol,[2]; 1 month 25° C./60% RH,<0.03%
same,Chromatographic Purity: Individual unspecified impurity,[2]; 1 month 25° C./60% RH,<0.03%
same,Chromatographic Purity: Olivetol,[2]; 1 month 25° C./60% RH,<0.03%
same,Chromatographic Purity: Sum of impurities,[2]; 1 month 25° C./60% RH,<0.05%
same,Chromatographic Purity: 4-Monobromo-cannabidiol,[2]; [3],<0.03%
same,Chromatographic Purity: Individual unspecified impurity,[2]; [3],<0.03%
same,Chromatographic Purity: Olivetol,[2]; [3],<0.03%
same,Chromatographic Purity: Sum of impurities,[2]; [3],<0.05%
same,Chromatographic Purity: 4-Monobromo-cannabidiol,[2]; 1.5 months 25° C./60% RH,<0.03%
same,Chromatographic Purity: Individual unspecified impurity,[2]; 1.5 months 25° C./60% RH,<0.03%
same,Chromatographic Purity: Olivetol,[2]; 1.5 months 25° C./60% RH,<0.03%
same,Chromatographic Purity: Sum of impurities,[2]; 1.5 months 25° C./60% RH,<0.05%
same,Chromatographic Purity: 4-Monobromo-cannabidiol,[2]; [4],<0.03%
same,Chromatographic Purity: Individual unspecified impurity,[2]; [4],<0.03%
same,Chromatographic Purity: Olivetol,[2]; [4],<0.03%
same,Chromatographic Purity: Sum of impurities,[2]; [4],<0.05%
same,Chromatographic Purity: 4-Monobromo-cannabidiol,[2]; [5],<0.03%
same,Chromatographic Purity: Individual unspecified impurity,[2]; [5],<0.03%
same,Chromatographic Purity: Olivetol,[2]; [5],<0.03%
same,Chromatographic Purity: Sum of impurities,[2]; [5],<0.05%
same,Chromatographic Purity: 4-Monobromo-cannabidiol,[2]; [6],<0.03%
same,Chromatographic Purity: Individual unspecified impurity,[2]; [6],<0.03%
same,Chromatographic Purity: Olivetol,[2]; [6],<0.03%
same,Chromatographic Purity: Sum of impurities,[2]; [6],<0.05%
same,Chromatographic Purity: 4-Monobromo-cannabidiol,[2]; [7],<0.03%
same,Chromatographic Purity: Individual unspecified impurity,[2]; [7],<0.03%
same,Chromatographic Purity: Olivetol,[2]; [7],<0.03%
same,Chromatographic Purity: Sum of impurities,[2]; [7],<0.05%
same,Chromatographic Purity: 4-Monobromo-cannabidiol,[2]; 6 months 25° C./60% RH,<0.03%
same,Chromatographic Purity: Individual unspecified impurity,[2]; 6 months 25° C./60% RH,<0.03%
same,Chromatographic Purity: Olivetol,[2]; 6 months 25° C./60% RH,<0.03%
same,Chromatographic Purity: Sum of impurities,[2]; 6 months 25° C./60% RH,<0.05%
same,Chromatographic Purity: 4-Monobromo-cannabidiol,[2]; [8],<0.03%
same,Chromatographic Purity: Individual unspecified impurity,[2]; [8],<0.03%
same,Chromatographic Purity: Olivetol,[2]; [8],<0.03%
same,Chromatographic Purity: Sum of impurities,[2]; [8],<0.05%
